The target of test [1] is Acetylcholine receptor subunit alpha (Torpedo californica) (UniProt P02710). Briefly: Increase in [3H]PCP binding to nAChR in Torpedo nobiliana electric organs membranes by scintillation counting method. The format is tissue-based. The following applies: Electric organ.
For test [2] the target is unchanged. Briefly: Displacement of [3H]PCP from nAChR in Torpedo nobiliana electric organs membranes assessed as [3H]PCP binding level at 300 uM pre-treated with 0.5 uM alpha-bungarotoxin by scintillation counting method relative to untreated control. The settings on record: Electric organ. The format is tissue-based.
Test [3] has the same target. Briefly: Displacement of [3H]PCP from nAChR in Torpedo nobiliana electric organs membranes assessed as [3H]PCP binding level at 300 uM in presence of 100 uM carbachol by scintillation counting method relative to untreated control. The format is tissue-based. The following applies: Electric organ.
Test [4] is described as follows: Displacement of [3H]alpha-BGT from nAChR in Torpedo nobiliana electric organs membranes by scintillation counting method. In general terms: Loss of bound radioactivity is the signal in a displacement assay; it reports binding, not function.
The target in test [5] is Acetylcholine receptor subunit alpha (Torpedo californica) (UniProt P02710). The experiment in a line: Displacement of [3H]PCP from nAChR in Torpedo nobiliana electric organs membranes assessed as [3H]PCP binding level at 300 uM by scintillation counting method relative to untreated control. The format is tissue-based. The following applies: Electric organ.
Test [6] has the same target. Briefly: Displacement of [3H]alpha-BGT from nAChR in Torpedo nobiliana electric organs membranes at 1000 uM by scintillation counting method. The format is tissue-based. The settings on record: Electric organ.
Test [7] has the same target. The experiment in a line: Displacement of [3H]PCP from nAChR in Torpedo nobiliana electric organs membranes at 1000 uM by scintillation counting method. The format is tissue-based. The following applies: Electric organ.
For test [8] the target is unchanged. The experiment in a line: Displacement of [3H]alpha-BGT from nAChR in Torpedo nobiliana electric organs membranes at 300 uM by scintillation counting method. The following applies: Electric organ. The format is tissue-based.
The target is the same in test [9]. Briefly: Displacement of [3H]PCP from nAChR in Torpedo nobiliana electric organs membranes at 300 uM by scintillation counting method. The format is tissue-based. The following applies: Electric organ.
Test [10] shares this target. Briefly: Displacement of [3H]PCP from nAChR in Torpedo nobiliana electric organs membranes assessed as [3H]PCP binding level at 1000 uM by scintillation counting method relative to untreated control. The following applies: Electric organ. The format is tissue-based.
Test [11] has the same target. Briefly: Displacement of [3H]PCP from nAChR in Torpedo nobiliana electric organs membranes assessed as [3H]PCP binding level at 1000 uM pre-treated with 0.5 uM alpha-bungarotoxin by scintillation counting method relative to untreated control. The format is tissue-based. The following applies: Electric organ.
Test [12] has the same target. Briefly: Displacement of [3H]PCP from nAChR in Torpedo nobiliana electric organs membranes assessed as [3H]PCP binding level at 1000 uM in presence of 100 uM carbachol by scintillation counting method relative to untreated control. The settings on record: Electric organ. The format is tissue-based.
The target is the same in test [13]. The experiment in a line: Displacement of [3H]PCP from nAChR in Torpedo nobiliana electric organs membranes assessed as [3H]PCP binding level at 500 uM in presence of 100 uM carbachol by scintillation counting method relative to untreated control. The format is tissue-based. The settings on record: Electric organ.
For test [14] the target is unchanged. Briefly: Displacement of [3H]PCP from nAChR in Torpedo nobiliana electric organs membranes assessed as [3H]PCP binding level at 500 uM by scintillation counting method relative to untreated control. The format is tissue-based. The following applies: Electric organ.
For test [15] the target is unchanged. The experiment in a line: Increase in [3H]PCP binding to nAChR in Torpedo nobiliana electric organs membranes at 1 to 3 uM by scintillation counting method. The format is tissue-based. The settings on record: Electric organ.

The source made the active and inactive calls. The calls are words filed in the database; no cut-off is given here.

Acetylcholine receptor subunit alpha (Torpedo californica), sequence (P02710 whole entry): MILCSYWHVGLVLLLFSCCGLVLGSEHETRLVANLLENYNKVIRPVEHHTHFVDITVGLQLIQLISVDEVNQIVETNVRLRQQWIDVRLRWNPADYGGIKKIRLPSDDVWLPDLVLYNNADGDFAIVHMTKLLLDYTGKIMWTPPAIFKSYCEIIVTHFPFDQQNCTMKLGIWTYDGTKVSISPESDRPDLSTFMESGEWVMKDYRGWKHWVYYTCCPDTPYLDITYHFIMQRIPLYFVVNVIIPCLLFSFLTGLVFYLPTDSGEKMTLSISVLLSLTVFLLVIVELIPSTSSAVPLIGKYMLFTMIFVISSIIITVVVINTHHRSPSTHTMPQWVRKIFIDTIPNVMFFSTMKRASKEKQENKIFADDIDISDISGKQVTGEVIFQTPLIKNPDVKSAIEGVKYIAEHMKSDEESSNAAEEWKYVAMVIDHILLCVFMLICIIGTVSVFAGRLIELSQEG

In the case of `C[N+]1(C)CCN(c2ccccc2)CC1`, in test [1], the outcome was Active.

By IC50 is commonly meant the concentration at which inhibition is half-maximal. With `O=[N+]([O-])/N=C1\NCCN1Cc1ccc(Cl)nc1` [IMIDACLOPRID], the Activity amounted to 108% in test [2], 92.4% in test [3] and 287% in test [5]. This compound also returned an IC50 in [4] of 1060 µM.

As a reminder, the inhibition is the drop in the measured response relative to a control, in per cent. Read a high inhibition as a response far below the control. For `CNC1(c2ccccc2Cl)CCCCC1=O` (configuration not stated), the inhibition in test [6] turned out to be 0.1%.

Compound `c1cncc([C@@H]2CCCCN2)c1` [ANABASINE] displayed a half-inhibitory concentration (IC50) in [4] of 193 µM. For the same compound, in [1], the result was Active.

Compound `CN1[C@@H](CC(=O)c2ccccc2)CCC[C@H]1C[C@H](O)c1ccccc1` had an inhibition in [6] of 0%.

As to `CN1CCC[C@@H]1c1cccnc1`, in [1], the result was Active.

Turning to `CSCCN1CCN/C1=C\[N+](=O)[O-]`, the values for the Activity in test [3] and in [5] were 830% and 181%, respectively.

Consider `CCC[C@H]1CCCCN1`, for which the result in test [1] was Active.

On to `CN(C)C1CSSC1`, for which the outcome in [1] was Active.

As to `O=C1N(Cc2ccccc2)C2C[S+]3CCCC3C2N1Cc1ccccc1` (configuration not stated), the inhibition in [7] turned out to be 59.5%; in [8], 5.7%; in test [9], 5.93%.

For the compound `O=[N+]([O-])C=C1NCCCS1`, the Activity in [10] stood at 439%; in test [11], 112%; in test [12], 762%. Further, the IC50 in [4] was determined as 1590 µM.

On to `O=[N+]([O-])/C=C1\NCCN1Cc1ccc(Cl)nc1`, for which the Activity in [2] was determined as 142%; in test [3] it was 94.6%; in [5], 461%.

In the case of `C/C(=N\C#N)N(C)Cc1ccc(Cl)nc1`, the Activity stood at 104% in test [2], 93.3% in test [3] and 221% in test [5].

Consider `CN(C)CCCN1c2ccccc2Sc2ccc(Cl)cc21`, for which the inhibition in test [6] was 7.15%.

For `CCN(Cc1ccc(Cl)nc1)/C(=C/[N+](=O)[O-])NC`, the Activity in test [13] was 607%; in [14], 142%. In test [8], the inhibition stood at 2.39%.

`c1ccc(C2(N3CCCCC3)CCCCC2)cc1`: the inhibition in test [6] is 3.2%.

In the case of `O=c1cccc2n1C[C@@H]1CNC[C@H]2C1`, the result in test [1] was Active.

With `C[N+](C)(C)CCOC(N)=O` [CARBACHOL], the IC50 in [4] was 7.64 µM. Further, in test [1], the result was Active.

For the compound `c1csc(C2(N3CCCCC3)CCCCC2)c1`, in [8], the inhibition worked out at 0.91%.

On to `CNC1(C)C2CCC(C2)C1(C)C` (configuration not stated), for which the inhibition in test [6] was 0%.

In turn, `COc1cc2c3cc1Oc1cc(ccc1O)C[C@@H]1c4c(cc(OC)c(O)c4Oc4ccc(cc4)C[C@@H]3N(C)CC2)CC[N+]1(C)C` gave an inhibition in test [9] of 91.3%. The compound further displayed an Activity in [15] of 160%. In addition, the outcome in test [1] was Active.

In [4], `CN1CCC[C@H]1c1cccnc1` [NICOTINE] showed an IC50 of 23.1 µM. Besides, the result in test [1] was Active.

Source of the values: ChEMBL document CHEMBL3046562, “Pharmacological Effects of Imidacloprid and Its Related Compounds on the Nicotinic Acetyicholine Receptor with Its Ion Channel from the Torpedo Electric Organ” (J Pestic Sci, 1995).
